Results from US11890288B2, “Sulfonamide or sulfinamide compound having effect of inducing BRD4 protein degradation and pharmaceutical use thereof” (MITSUBISHI TANABE PHARMA CORPORATION, priority 2020, dated 2024).

Experiments:
BRD4 protein = BRD4 protein (Homo sapiens (Human), UniProt O60885); assay: BRD4 protein degradation inducing action in LNCaP cells (immunofluorescence, 6 hr); type: cell-based; conditions: anti-BRD4 fluorescence intensity
Experimental: The degradation inducing action of the compound of the present invention on BRD4 proteins in cancer cells was evaluated in vitro using human prostate cancer LNCaP cells. LNCaP cells were suspended in 10% FBS/RPMI1640, seeded in a 96 well Cell carrier plate (Perkin Elmer) and cultured at 5% CO2, 37° C. overnight. A test compound dissolved in DMSO was diluted with 10% FBS/RPMI1640 and added and the cells were further cultured for 6 hr. After culturing, the cells were immobilized with 4% para-formaldehyde/PBS and further subjected to a permeation treatment with 0.25% Triton X-100/PBS. Thereafter, the cells were blocked with 10% BSA/PBS, Anti-BRD4 (Sigma-Aldrich) solution was added and the cells were incubated at 4° C. overnight. Furthermore, Goat anti-Rabbit IgG(H+L) Cross-Adsorbed Secondary Antibody, Alexa Fluor 546 (Thermo Fisher Scientific) solution, 0.5 μg/mL Hoechst 33342 (Sigma-Aldrich), and 14 μM Acti-Stain 555 Fluorescent Phalloidin (Cytoskeleton) were added. After incubation for 1 hr, BRD4 protein amount was measured by Operetta (Perkin Elmer) as fluorescence intensity (excitation: 560 nm, emission: 572 nm). The BRD4 protein degradation inducing activity of the compound of the present invention in LNCaP cells is shown in DC50 value in Table 3. The DC50 value is a concentration of the compound showing 50% fluorescence intensity when the fluorescence intensity thereof under compound untreated condition is 100%. It was calculated from the straight line connecting the fluorescence intensity at two points enclosing the 50% fluorescence intensity and the compound concentration.

[1] = system: human prostate cancer LNCaP cells; assay: Cytotoxic action on LNCaP cells (WST-8, 96 hr); type: cell-based; conditions: 96 hr culture
Experimental: The cytotoxic action of the compound of the present invention against human cancer cells was evaluated in vitro. In this experiment, (+)-JQ1 (Nature volume 468, pages 1067-1073 (23 Dec. 2010)) known to have an inhibitory activity on the binding of BRD4 protein and a ligand therefor was used as a positive control drug. Respective cells were suspended in 10% FBS/RPMI1640, seeded in a 96 well plate and cultured at 5% CO2, 37° C. overnight. A test compound dissolved in DMSO was diluted with 10% FBS/RPMI1640 and added and the cells were further cultured for 96 hr. After culturing, the viable cell number was measured using a cell number measurement WST-8 kit (Kishida Chemical Co., Ltd.). As a control, the measurement was performed under conditions free of the test compound. The cytotoxic activity of the compound of the present invention against human prostate cancer LNCaP cells is shown in IC50 value in Table 1. The IC50 value is a concentration of the compound showing 50% cell survival rate when the cell survival rate thereof under compound untreated condition is 100%. It was calculated from the straight line connecting the cell survival rate at two points enclosing the 50% cell survival rate and the compound concentration. In addition, the cytotoxic activity against respective cancer cells of human acute myeloid leukemia MV-4-11 cell, human chronic myeloid leukemia K562 cell, human multiple myeloma MM.1S cell, human diffuse large B-cell lymphoma SU-DHL-6 cell, human T-cell leukemia Jurkat cells, human Burkitt lymphoma Raji cell, human castration-resistant prostate cancer PC-3 cell, human AR-V7 positive castration-resistant prostate cancer 22Rv1 cell, human ovarian cancer A2780 cell, human cisplatin-resistant ovarian cancer SK-OV-03 cell, human bladder cancer 5637 cell, human breast cancer ZR-75-1 cell, human triple negative breast cancer MDA-MB-231 cell, human uterus cervix cancer HeLa cell, human uterine sarcoma MES-SA cell, human stomach cancer SNU-16 cell, human non-small cell lung cancer NCI-H2126 cell, human EGFRT790M mutation-positive non-small cell lung cancer NCI-H1975 cell, human small cell lung cancer NCI-H82 cell, human large cell lung cancer NCI-H460 cell, human colon cancer HCT116 cell, human glioma U-87 MG cell, human pancreatic cancer BxPC-3 cell, human liver cancer HLF cell, human bile duct cancer HuCCT1 cell, human renal cell cancer 786-O cell, and human fibrosarcoma HT1080 cell is shown in IC50 value in Table 2.

Row | DC50 (BRD4 protein) [nM] | Structure (SMILES) | IC50 [1] [nM]
1 | 0.035 | Cc1sc2c(c1C)C(c1ccc(-c3ccc(C(=O)NCc4ccc(S(=O)(=O)Nc5ccc(C)c6c(C#N)c[nH]c56)cc4)cc3)cc1)=N[C@@H](CC(=O)OC(C)C)c1nnc(C)n1-2 [Example Compound 131, isopropyl [(6S)-4-{4′-[({4-[(3-cyano-4-methyl-1H-indol-7-yl)sulfamoyl]phenyl}methyl)carbamoyl][1,1′-biphenyl]-4-yl}-2,3,9-trimethyl-6H-thieno[3,2-f][1,2,4]triazolo[4,3-a][1,4]diazepin-6-yl]acetate] | 0.065
2 | 0.15 | COC(=O)C[C@@H]1N=C(c2ccc(-c3cnc(C(=O)NCc4ccc(S(=O)(=O)Nc5ccc(C)c6c(C#N)c[nH]c56)cc4)cc3C)cc2)c2c(sc(C)c2C)-n2c(C)nnc21 [Example 101, methyl [(6S)-4-(4-{6-[({4-[(3-cyano-4-methyl-1H-indol-7-yl)sulfamoyl]phenyl}methyl)carbamoyl]-4-methylpyridin-3-yl}phenyl)-2,3,9-trimethyl-6H-thieno[3,2-f][1,2,4]triazolo[4,3-a][1,4]diazepin-6-yl]acetate] | 0.27
3 | 0.13 | COc1ccc2c(c1)C(c1ccc(-c3ccc(C(=O)NCc4ccc(S(=O)(=O)Nc5ccc(C)c6c(C#N)c[nH]c56)cc4)cc3)cc1)=N[C@@H](CC(=O)OC(C)(C)C)c1nnc(C)n1-2 [Example Compound 132, t-butyl [(4S)-6-{4′-[({4-[(3-cyano-4-methyl-1H-indol-7-yl)sulfamoyl]phenyl}methyl)carbamoyl][1,1′-biphenyl]-4-yl}-8-methoxy-1-methyl-4H-[1,2,4]triazolo[4,3-a][1,4]benzodiazepin-4-yl]acetate] | 0.21
4 | 0.42 | CCc1ccc(NS(=O)(=O)c2ccc(CNC(=O)c3ccc(-c4ccc(C5=N[C@@H](CC(=O)OC)c6nnc(C)n6-c6sc(C)c(C)c65)cc4)c(Cl)c3)cc2)c2[nH]cc(C#N)c12 [Example Compound 116, methyl [(6S)-4-{2′-chloro-4′-[({4-[(3-cyano-4-ethyl-1H-indol-7-yl)sulfamoyl]phenyl}methyl)carbamoyl][1,1′-biphenyl]-4-yl}-2,3,9-trimethyl-6H-thieno[3,2-f][1,2,4]triazolo[4,3-a][1,4]diazepin-6-yl]acetate] | 0.65
5 | 0.25 | COC(=O)C[C@@H]1N=C(c2ccc(-c3cc(C)c(C(=O)NCc4ccc(S(=O)(=O)Nc5ccc(C)c6c(C#N)c[nH]c56)cc4)cc3F)cc2)c2c(sc(C)c2C)-n2c(C)nnc21 [Example 83, methyl [(6S)-4-{4′-[({4-[(3-cyano-4-methyl-1H-indol-7-yl)sulfamoyl]phenyl}methyl)carbamoyl]-2′-fluoro-5′-methyl[1,1′-biphenyl]-4-yl}-2,3,9-trimethyl-6H-thieno[3,2-f][1,2,4]triazolo[4,3-a][1,4]diazepin-6-yl]acetate] | 0.33
6 | 0.32 | COC(=O)C[C@@H]1N=C(c2ccc(-c3ccc(C(=O)NCc4ccc(S(=O)(=O)Nc5ccc(C)c6c(C#N)c[nH]c56)cc4)cc3C)cc2)c2c(sc(C)c2C)-n2c(C)nnc21 [Example 75, methyl [(6S)-4-{4′-[({4-[(3-cyano-4-methyl-1H-indol-7-yl)sulfamoyl]phenyl}methyl)carbamoyl]-2′-methyl[1,1′-biphenyl]-4-yl}-2,3,9-trimethyl-6H-thieno[3,2-f][1,2,4]triazolo[4,3-a][1,4]diazepin-6-yl]acetate] | 0.47
7 | 0.17 | CCc1ccc(NS(=O)(=O)c2ccc(CCNC(=O)c3ccc(-c4ccc(C5=N[C@@H](CC(=O)OC)c6nnc(C)n6-c6sc(C)c(C)c65)cc4)c(F)c3F)cc2)c2[nH]cc(C#N)c12 [Example Compound 125, methyl [(6S)-4-{4′-[(2-{4-[(3-cyano-4-ethyl-1H-indol-7-yl)sulfamoyl]phenyl}ethyl)carbamoyl]-2′,3′-difluoro[1,1′-biphenyl]-4-yl}-2,3,9-trimethyl-6H-thieno[3,2-f][1,2,4]triazolo[4,3-a][1,4]diazepin-6-yl]acetate] | 0.37
